Calls of active or inactive are those of the source.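 Rule for the calls: active = compounds giving half or more protection of infected cells from virus-caused growth loss, again on retest; inactive = the rest.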
Tested on: CEM cells HIV-1 protection, formazan growth assay
Test: NCI AIDS Antiviral Assay
Conditions: for IC50: measured here: growth of uninfected CEM cells
Procedure, shortened: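 Category rules: moderately active means at least 50% protection on retest, and confirmed active means 100% protection reproducibly. The underlying data came from a formazan growth assay in HIV-1-infected CEM cells.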

SMILES	EC50 [µM]	IC50 [µM]	outcome
CCOC(=O)NC(Nc1ncn(C(NC(=O)OCC)(C(F)(F)F)C(F)(F)F)n1)(C(F)(F)F)C(F)(F)F	> 200	> 200	–
CC(=O)C1C(=O)C(=O)N(c2ccccc2N2C(=O)C(=O)C(C(C)=O)C2=O)C1=O (centres undefined)	–	–	inactive
Cc1ccc(S(=O)(=O)N2CCCSCC2)cc1	> 182	> 182	–
O=C(NCCO)c1ccc[c]([Sb](=[O])([OH])[OH])c1	23.4	398	–
COc1ccc(N2C(N)=C(C#N)C(C#N)(C#N)C2c2cccc([N+](=O)[O-])c2)cc1 (centres undefined)	> 200	5.89	–
COC(=O)/C=C1\C(CO[Si](C)(C)C(C)(C)C)OC(n2ccc(=O)[nH]c2=O)C1O (centres undefined)	> 200	6.17	–
O=C(O)[C@H](NS(=O)(=O)c1ccc(F)cc1)c1ccccc1	–	–	inactive
CN(C)c1c(-c2ccccc2)cc(-c2ccccc2)[nH]c1=O	> 64.6	> 64.6	–
Nc1nnn(N)n1	> 200	> 200	–
O=c1[nH]c(=O)n(C2CC(O)C(CO)O2)cc1C(OCC(F)(F)F)OCC(F)(F)F (centres undefined)	> 251	12	–
CCCCCCCCCCCC(=O)OCC1OC(n2cc(F)c(=O)[nH]c2=O)C(N)C(O)C1O (centres undefined)	> 55	> 55	–
C=C[C@@]1(C)CCC2(O)C(CCC3C2(C)CCC[C@@]3(C)COC(=O)CC(=O)OC)C1 (some centres undefined)	> 24.5	> 24.5	–
O=C1c2ccccc2-c2cccc3cccc1c23	> 16.2	> 16.2	–
Clc1ccc(C2NN=C3c4ccccc4OCC32)cc1 (centres undefined)	> 200	4.27	–
CC(=O)OCCOCn1c2c(c(=O)[nH]c1=O)CCC2	> 200	> 200	–
COc1ccccc1C1=NC(C)(C)CO1	> 1230	> 1230	–
CCCCCCCCCCCCOC(=N)N(C)C	> 200	2	–
Cc1cn(COCCCOCC(=O)c2ccccc2)c(=O)[nH]c1=O	93.3	> 200	–
O=c1cc[nH]cc1-c1c[nH]ccc1=O	–	–	inactive
CN(C)c1ccc(C(Cc2ccccc2)C2NC(=S)NC2=O)cc1 (centres undefined)	> 200	15.5	–
CCNC(=S)N/N=C(\C)c1ccccn1	> 0.2	0.0158	–
CCOC(=O)c1c(SC(=O)c2cc(OC)c(OC)c(OC)c2)n(-c2ccccc2)c(=S)n(-c2ccccc2)c1=O	> 200	32.4	–

SMILES	EC50 [µM]	IC50 [µM]	outcome
COc1cc2c(cc1OC)C(CCc1ccc(Cl)cc1)N(C)CC2 (centres undefined)	> 200	91.2	–
CS(=O)(=O)CC(Cc1ccccc1)C(=O)O (centres undefined)	–	–	inactive
CSc1nc(=O)c2nc(-c3cccs3)c(-c3cccs3)nc2n1C	> 100	> 100	–
CCCCCCC[C@@H](O)CC(=O)NC(CC(C)C)C(=O)NC(CCC(=O)O)C(=O)NC1C(=O)NC(C(C)C)C(=O)NC(CC(C)C)C(=O)NC(CO)C(=O)NC(CC(C)C)C(=O)NC(CO)C(=O)NC(C(C)CC)C(=O)OC1C (some centres undefined)	91.2	166	–
Cn1c(-c2cccs2)cc(-c2cccs2)c1-c1ccsc1	> 20	11.2	–
CCOC(=O)c1cc(=O)oc2c1N(C)c1ncccc1N2	> 200	166	–
CC(C)CCC(=O)c1ccoc1	> 1510	> 1510	–
CC(C)OP(=O)(OC(C)C)c1nn(-c2ccc([N+](=O)[O-])cc2)c(=N)s1	> 129	93.3	–
CC(=O)O/C=C\OC1CCCC1	> 200	> 200	–
COC(=O)CCC(=O)Nc1cccc(C(F)(F)F)c1	> 129	> 129	–
Cc1cc2c(c(=O)n1C)COC2=O	–	–	inactive
CC(=C/c1ccccc1)/C=C1/NC(=S)N(/C=C2\C(=O)Oc3ccccc3C2=O)C1=O	> 200	> 200	–
C=Cc1cc[n+](CCCCC[n+]2ccc(C=C)cc2)cc1	> 100	> 100	–
CN(C)CCC(CCN(C)C)=NOC(=O)c1ccccc1	> 692	> 692	–
COc1ccc(C2=[N+]([O-])c3ccccc3C2=O)cc1	–	–	inactive
CC(=O)OC12c3ccccc3C(c3ccccc31)C1C(=O)N(c3ccccc3O)C(=O)C12 (centres undefined)	100	105	–
C#CC(C)(C)OC(=O)C(=[N+]=[N-])C(C)=O	> 200	> 200	–
CC1=NN(C(=O)c2ccc(Cl)cc2)C(=O)/C1=C/c1ccc(O)cc1	> 15.1	> 15.1	–
Cc1cccc(Nc2nc3ccccc3nc2NS(=O)(=O)c2ccccc2)c1	> 100	15.5	–
Nc1ncnc2c1ncn2-c1ccc([N+](=O)[O-])cn1	–	–	inactive
N#CC1(O)Cc2ccccc2C1	> 200	> 200	–
